The subject of series [1] is chemotherapy-induced mucositis. In words: mitigation of chemotherapy-induced mucositis. The settings on record: in vivo.
A short description of series [2]: elimination half-life of Compound 1 in mice. The settings on record: mouse, in vivo, read-out: elimination t1/2.
The test system of another series is plasma uridine. The series can be described thus: plasma uridine vs plasma Compound 1 concentration after continuous sc osmotic-pump infusion to mice. The settings on record: BDF-1 male mice, constant-rate sc infusion 667, 833 or 3000 mg/kg/day. Format: in vivo. Here is the method:
Because uridine is cleared so rapidly, with an elimination half-life (t1/2) only a few minutes,^13 and the elimination t1/2 of Compound 1 in mice is only 1-2 hours, it is very challenging to measure uridine concentrations elevations post discrete doses of Compound I, such as used for ip dosing. For this reason, continuous infusion of Compound 1 (TK-112690) to BDF-1 t mice was administered via sc implanted osmotic pumps, and the uridine plasma concentration was measured. Solutions of Compound 1 were prepared at a concentration of 500 mg/mL in sterile PBS. Osmotic pumps (ALZET® micro-osmotic pump 2001D and 1003D, Alza Co) were loaded with 200 μL. (2001D osmotic pump) and/or 100 μL (1003D osmotic pump) of Compound 1 solution.
BDF-1 male mice (n=6) were treated with a constant-rate infusion of 667, 833 or 3000 mg/kg/day doses of Compound 1 delivered via subcutaneously implanted osmotic pumps. Animals were anesthetized with 100 mg/kg ketamine prior to pump implantation. Surgical scissors were used to make an approximately 1 cm incision on the dorsal surface near the shoulder blade of animals. A hemostat was used to carve out a subcutaneous tunnel toward the anterior end of animal. Osmotic pumps were placed inside the subcutaneous tunnel. Incision was sealed with wound clips.
Blood collections were performed on animals anesthetized with ketamine (ip 100 mg/kg). Blood samples from animals treated with a constant-rate infusion of TK-112690 were collected at 72 hours for 667 mg/kg/day and 833 mg/kg/day, and 24 hours for 3000 mg/kg/day after pump implantation. Whole blood (˜0.8 mL) was drawn through the retro-orbital sinus using a heparin coated micro-hematocrit tubes and collected into EDTA microtainer tubes. Blood samples were transferred into fresh 1.5 mL microcentrifuge tubes and centrifuged for 10 minutes at 14,000×g using an Eppendorf Minispin Plus stored in a 4° C. refrigerator. Exactly 0.4 mL of plasma was transferred into fresh microcentrifuge tubes containing 2 μL of 10 mM 5-FU and vortexed at highest setting for approximately 5 seconds. […]

A short description of series [3]: side effects of TK-112690.
For a further series, the system named is hepatic fibrosis. In words: animal model of hepatic fibrosis. The format is in vivo. The settings on record: summary statement.
In series [4] the test system is bleomycin-induced pulmonary fibrosis. In words: bleomycin-induced pulmonary fibrosis study in mice, lung histology (Masson's trichrome, Ashcroft grading). The format is in vivo. The settings on record: for lower fibrosis (histology score) than mice treated with the dosing vehicle / statistical significance of the fibrosis decrease vs dosing vehicle: C57BL/6 male mice, bleomycin OA day 0, 60 mg/kg IP BID days 7 through 20; for statistical significance of the fibrosis decrease vs dosing vehicle: SPSS. The text has this: FIG. 2. Figure is a chart providing histology scores for pulmonary tissue from mice treated with bleomycin (a well characterized lung toxin) and either dosing vehicle, uridine, or TK-112690. Thirty-three C57BL/6 male mice, 10-14 weeks old at study initiation, were acclimatized for least 3 days. The mouse has been selected as is referenced in the literature as a representative species of choice for this experimental animal model. During acclimation and throughout the entire study duration, animals were housed within a limited access rodent facility and kept in groups of a maximum of 4 mice per cage. Mice were housed in polypropylene cages with solid bottoms and wood shavings or corn cobb as bedding material. Animals were provided ad libitum with a commercial rodent diet and had free access to drinking water that is supplied to each cage via polyethylene bottles. The automatically controlled environmental conditions was set to maintain temperature at 20-26° C. with a relative humidity (RH) of 30-70%, a 12:12 hour light: dark cycle, and 10-15 air changes/hour in the study room. Animals were given a unique animal identification tail mark as a means of identification. This number also appeared on a cage card, which was visible on the front of each cage. The cage card also contained the study and group numbers, route of administration, gender, study director, and arrival date.
Animals were randomly assigned to cages upon arrival. Animals were assigned to treatment groups prior to treatment initiation. At study termination, surviving animals were weighed prior to euthanasia. Euthanasia was performed via anesthesia overdose and exsanguination.
The Table below lists the experimental group(s) comprising the study.
Disease Induction. 75 uL of Bleomycin (section 4.5.) was administered on day 0 via oropharyngeal aspiration (OA). The mice were anesthetized via isoflurane/oxygen and suspended by their cranial incisors on a thin wire from an angled stand. The tongue was gently held from the mouth using blunt forceps to visualize the base of the tongue and the pharynx. Bleomycin/saline suspension was pipetted onto posterior pharynx. Nostrils were held gently closed, Respiration was monitored to ensure the suspension is fully aspirated.
Treatment. Groups 3 and 4 were treated via intraperitoneal (IP) injection at a dosing volume of 10 ml/kg twice daily, 6-8 hours between doses, from days 7 through 20.
Observations and Examinations. Clinical signs, humane endpoints, and palliative care were monitored, as follows: changes in skin, fur, eyes, mucus membranes, occurrence of secretions and excretions, autonomic activity, gait, posture, response to handling, abnormal behavior, tremors, convulsions, sleep and coma, labored breathing, and adventitious lung sounds.
The bleomycin administration induced a severe pulmonary inflammation resulting in lethargy, dehydration, and death of diseased animals. Animals in all diseased groups were given fresh diet gel daily beginning on Day 7 and through the remainder of the study. Body weight measurements were performed 3× weekly starting on Day 0 and throughout the rest of the study.
Termination: BALF and tissue collection. Animals were euthanized via isoflurane overdose. Following euthanasia an angiocatheter was inserted into the trachea. […]
Histology. […] Disease severity and collagen levels were assessed by the Ashcroft fibrosis grading system.
The resulting data were analyzed by SPSS, version 20.

A further series concerns UPase. The settings on record: cited from earlier work.
The conditions of series [5]: in vivo; cited from earlier work.

Regarding `Cc1cn2c(nc1=O)O[C@H]1[C@H](O)[C@@H](CO)O[C@H]12` [TK-112690], in series [1], the “efficacy as an agent to mitigate chemotherapy-induced mucositis” value is on record as “proven efficacy”. Besides, the half-life in series [2] lay in the range of 1 to 2 h. In the series with plasma uridine, the “effect on plasma uridine” value is given as “elevate plasma uridine in a linear fashion”; the “intercept of regression line, plasma uridine concentration vs plasma Compound 1 concentration” value turned out to be 0.051; the “slope of regression line, plasma uridine concentration vs plasma Compound 1 concentration” value is 0.010. In series [3], the side effects entry was “no known side effects”. Further, the “protection in animal model of hepatic fibrosis” value in the series on hepatic fibrosis is “protects”. Moreover, in series [4], the “lower fibrosis (histology score) than mice treated with the dosing vehicle” value is recorded as 30% and the “statistical significance of the fibrosis decrease vs dosing vehicle” value is listed as “statistically significant”. The “protection in bleomycin-induced animal model of pulmonary fibrosis” value in series [4] (summary statement) is on record as “protects”. In addition, in the series with UPase, the UPase inhibitor result was “authentic UPase inhibitor”.
Regarding `O=c1ccn([C@@H]2O[C@H](CO)[C@@H](O)[C@H]2O)c(=O)[nH]1` [uridine], the “elimination half-life (t1/2)” value in series [5] is on record as “a few minutes”. Further, in series [4], the “lower fibrosis (histology score) than mice treated with the dosing vehicle” value is 7% and the “statistical significance of the fibrosis decrease vs dosing vehicle” value was “not statistically significant”.

These data come from patent US20240091228A1, “Uridine Phosphorylase Inhibitors to Prevent or Treat Drug-Induced Pulmonary Dysfunction” (Tosk, Inc., priority 2021, published 2024).
